The source of these data is paper PMC11676982, “Heterotropic Activation of Cytochrome P450 3A4 by Perillyl Alcohol” (Pharmaceutics, 2024).

Data set [1] concerns the target T1, CYP2B6 (Homo sapiens, UniProt P20813).
T1 sequence (P20813 1-491): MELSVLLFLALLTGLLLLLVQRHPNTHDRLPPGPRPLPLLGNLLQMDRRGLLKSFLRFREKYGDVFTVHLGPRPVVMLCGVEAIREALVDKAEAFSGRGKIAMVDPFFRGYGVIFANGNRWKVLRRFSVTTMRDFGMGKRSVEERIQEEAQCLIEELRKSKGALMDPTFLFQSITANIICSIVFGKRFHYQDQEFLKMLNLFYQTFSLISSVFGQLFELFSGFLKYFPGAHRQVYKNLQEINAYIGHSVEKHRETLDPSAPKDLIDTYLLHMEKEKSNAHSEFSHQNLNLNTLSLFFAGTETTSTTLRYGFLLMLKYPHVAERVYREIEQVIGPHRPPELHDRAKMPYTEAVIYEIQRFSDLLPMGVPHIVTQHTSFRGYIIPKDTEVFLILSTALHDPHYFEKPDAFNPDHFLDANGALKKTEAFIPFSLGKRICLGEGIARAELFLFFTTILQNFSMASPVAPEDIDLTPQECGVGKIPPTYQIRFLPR
As to the kind of experiment: Determination of CYP inhibition mode and Ki in pooled HLMs, CYP2B6-mediated bupropion hydroxylation.
Protocol: (§3) A 5 min pre-incubation was performed prior to initiating reactions with the addition of 1 mM NADPH. After incubation at 37 °C for 10 min, 200 μL of ice-cold acetonitrile containing 100 nM carbamazepine as an internal standard was added to terminate the reaction. The samples were agitated and centrifuged at 4 °C for 20 min at 3000× g. The supernatants were transferred to a 96-well plate for LC-MS/MS analysis. The experiment was performed using three separate samples.
(§4) Data acquired from the evaluation of enzyme inhibition using various concentrations of substrates and test compounds were fit to different models (competitive, noncompetitive, uncompetitive, or mixed), and inhibition constant (Ki) and goodness of fit values were obtained using GraphPad Prism. The appropriate type of inhibition was selected based on statistical goodness of fit tests including Akaike’s information criterion (AICc) with correction for small sample size and the standard deviation of the residuals (Sy.x).

Data set [2] concerns the target T2, CYP2A6 (Homo sapiens, UniProt P11509).
T2 sequence (P11509 1-494): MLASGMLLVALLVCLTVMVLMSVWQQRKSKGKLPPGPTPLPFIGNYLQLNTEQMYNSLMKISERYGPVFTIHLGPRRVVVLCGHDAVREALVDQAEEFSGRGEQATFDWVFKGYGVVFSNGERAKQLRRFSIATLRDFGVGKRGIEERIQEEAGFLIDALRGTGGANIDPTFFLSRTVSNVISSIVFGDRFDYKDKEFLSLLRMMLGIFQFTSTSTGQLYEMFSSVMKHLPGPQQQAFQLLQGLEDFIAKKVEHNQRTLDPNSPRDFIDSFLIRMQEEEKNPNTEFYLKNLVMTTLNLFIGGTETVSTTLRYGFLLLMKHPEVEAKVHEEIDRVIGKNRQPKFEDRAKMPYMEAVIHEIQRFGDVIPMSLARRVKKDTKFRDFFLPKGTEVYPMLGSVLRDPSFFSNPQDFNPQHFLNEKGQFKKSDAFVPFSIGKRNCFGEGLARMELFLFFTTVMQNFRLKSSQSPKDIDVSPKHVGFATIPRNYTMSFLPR
Put plainly: Direct CYP inhibition assay in pooled HLMs, CYP2A6 (coumarin). It is filed as in vitro ADME. The note with it: pooled HLMs 0.2 mg/mL; substrate coumarin 5 μM; 10 min; 95% CI in parentheses; read-out: IC50 against CYP2A6.

For data set [3], the target named is T2, CYP2A6. Put plainly: Determination of CYP inhibition mode and Ki in pooled HLMs, CYP2A6-mediated coumarin 7-hydroxylation.
Protocol: as §3, §4
Another data set concerns the target CYP2C19 (Homo sapiens, UniProt P33261). As to the kind of experiment: Direct CYP inhibition assay in pooled HLMs, CYP2C19 (S-mephenytoin). Conditions: read-out: IC50 against CYP2C19; pooled HLMs 0.2 mg/mL; substrate (S)-mephenytoin 100 μM; 10 min; 95% CI in parentheses.
Data set [4] has as its target T2, CYP2A6. As to the kind of experiment: Metabolism-dependent inhibition assay (IC50 shift) in pooled HLMs, CYP2A6. Conditions: substrate coumarin; for IC50: pooled HLMs, 95% CI in parentheses. The procedure: (§1) The experiments for determining metabolism-dependent inhibition were conducted utilizing a non-dilution method. […] The pre-incubation was initiated by the addition of 1 mM NADPH and incubation for 30 min. Subsequently, final incubation was performed with the addition of a substrate (5 μM coumarin or 50 μM bupropion) in the presence of NADPH for 10 min; the total volume of the mixture was 200 μL. […] Mixtures were subjected to centrifugation at 3000× g for 20 min at 4 °C, and the supernatants were analyzed using LC-MS/MS. The experiment was performed using three separate samples.
(§2) The CYP-mediated activities in the presence of test substances were expressed as percentages of the corresponding control values.

Data set [5] has as its target T1, CYP2B6. As to the kind of experiment: Direct CYP inhibition assay in pooled HLMs, CYP2B6 (bupropion). Conditions: read-out: IC50 against CYP2B6; pooled HLMs 0.2 mg/mL; substrate bupropion 50 μM; 10 min; 95% CI in parentheses.
For data set [6], the target named is T1, CYP2B6. Put plainly: Metabolism-dependent inhibition assay (IC50 shift) in pooled HLMs, CYP2B6. Conditions: substrate bupropion. The procedure:
as §1, §2

Data set [7] relates to CYP isoforms (CYP1A2, CYP2A6, CYP2B6, CYP2C8, CYP2C9, CYP2C19, CYP2D6, CYP2E1, and CYP3A4). Put plainly: Direct CYP inhibition assay in pooled HLMs, nine CYP isoforms (summary statement). Conditions: up to 50 μM.
[8] abbreviates: best fit by AICc and Sy.x, Dixon plots.
Setting [9] is: IC50 without NADPH/IC50 with NADPH.

CYP2C19, sequence (P33261 whole entry): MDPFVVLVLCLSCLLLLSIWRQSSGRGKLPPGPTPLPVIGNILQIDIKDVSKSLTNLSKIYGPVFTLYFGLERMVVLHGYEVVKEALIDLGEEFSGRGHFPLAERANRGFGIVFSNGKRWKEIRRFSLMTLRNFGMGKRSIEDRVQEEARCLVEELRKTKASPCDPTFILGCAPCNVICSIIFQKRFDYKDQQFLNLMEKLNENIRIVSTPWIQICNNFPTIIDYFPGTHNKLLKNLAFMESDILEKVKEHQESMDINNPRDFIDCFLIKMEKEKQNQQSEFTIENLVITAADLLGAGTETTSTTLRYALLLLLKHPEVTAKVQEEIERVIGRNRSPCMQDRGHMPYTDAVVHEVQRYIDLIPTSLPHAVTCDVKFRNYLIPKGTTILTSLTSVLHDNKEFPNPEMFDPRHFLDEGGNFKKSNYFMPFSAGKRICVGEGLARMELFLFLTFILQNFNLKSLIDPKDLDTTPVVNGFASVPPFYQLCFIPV

As a reminder, the Ki is the equilibrium dissociation constant of an inhibitor or competing ligand from its target. What is called IC50 is the concentration that inhibits the measured activity by half. On to `C=C(C)C1CC=C(C=O)CC1` (single isomer, unassigned; (-)) [(−)-PAH, (−)-Perillaldehyde], for which, at CYP2B6 [1] (setting [8]), the “Type of inhibition, CYP2B6” value is on record as “mixed inhibition model”. The “Ki, CYP2B6, uncompetitive model (not selected)” value at CYP2B6 [1] (pooled HLMs, bupropion, 95% CI in parentheses) is 2.77 (2.31–3.28) μM. In addition, the Ki on CYP2B6 [1] (read-out: Ki, CYP2B6, mixed inhibition model (selected best fit), pooled HLMs, bupropion 12.5–100 μM, 95% CI in parentheses) was found to be 3.05 µM; at CYP2A6 [3] (read-out: Ki, CYP2A6, mixed inhibition model (selected best fit), pooled HLMs, coumarin 1.25–10 μM, 95% CI in parentheses), 1.72 µM. For the same molecule, the IC50 at CYP2A6 [2] stood at 3.64 µM; at CYP2C19 it was 18 µM; on CYP2A6 [4] (read-out: IC50, pre-incubation with NADPH, CYP2A6, 30 min pre-incubation with NADPH), 7.99 µM; at CYP2A6 [4] (read-out: IC50, pre-incubation without NADPH, CYP2A6, 30 min pre-incubation without NADPH), 8.25 µM; on CYP2B6 [5], 6.15 µM; on CYP2B6 [6] (read-out: IC50, pre-incubation without NADPH, CYP2B6, pooled HLMs, 30 min pre-incubation without NADPH, 95% CI in parentheses), 11.9 µM. Further, the “Type of inhibition, CYP2A6” value at CYP2A6 [3] (setting [8]) is “mixed inhibition model”. In addition, at CYP2A6 [3] (pooled HLMs, coumarin, 95% CI in parentheses), the “Ki, CYP2A6, uncompetitive model (not selected)” value is given as 2.40 (2.04–2.82) μM. Further, the “IC50 fold-shift, CYP2A6” value at CYP2A6 [4] (setting [9]) is 1.03. Besides, the “IC50 fold-shift, CYP2B6” value at CYP2B6 [6] (setting [9]) stood at 0.78.
On to `COc1ccc2[nH]c([S+]([O-])Cc3ncc(C)c(OC)c3C)nc2c1` (stereo not drawn) [Omeprazole, reference compound], for which the IC50 at CYP2C19 was 5.4 µM.
`C=C(C)[C@H]1CC=C(C(=O)O)CC1` [(−)-PA, (−)-perillic acid]: the “Inhibition of activities of CYP isoforms (words)” value in data set [7] is reported as “did not significantly inhibit”; in data set [7] (listed as PA) it was “not significantly inhibited”.
For the molecule `C=C(C)C1CC=C(C=O)CC1` (single isomer, unassigned; (+)) [(+)-PAH, (+)-perillaldehyde], the IC50 at CYP2A6 [2] amounted to 10.6 µM; on CYP2C19, 50.5 µM; on CYP2B6 [5] it was 29 µM.
With `N[C@@H]1C[C@H]1c1ccccc1` (racemic) [Tranylcypromine, reference compound], the IC50 at CYP2A6 [2] worked out at 0.5 µM.
